From ChEMBL document CHEMBL3885861, “Open TG-GATES”

Organism: Rattus norvegicus
Experiment: Open TG-GATES - Regimen: Single
Type: toxicity, organism-based, Sprague-Dawley
Parameters: regimen Single, gender Male, age 6 weeks
Conditions: in vivo, po, 500 mg/kg, route gavage, dose level High; for APTT / Bas / Eos / Fbg / Hb / Ht / Lym / MCH / MCHC / MCV / Mono / Neu / PT / Plat / RBC / Ret / WBC: tissue Blood; for KIDNEY_L / KIDNEY_R / KIDNEY_TOTAL: tissue Kidney; for LIVER: tissue Liver; for A/G / ALP / ALT / AST / BUN / CRE / Ca / Cl / DBIL / GLC / IP / K / LDH / Na / PL / RALB / TBIL / TC / TG / TP / gamma-GTP: tissue Plasma

CC(=O)Oc1cc(C(C)C)c(OCCN(C)C)cc1C [MOXISYLYTE]
TERMINAL_BW (3 h): 212.3 g
APTT (3 h): 21.6 s
Bas (3 h): 0%
Eos (3 h): 1.2%
Fbg (3 h): 311.2 mg/dL
Hb (3 h): 12.6 g/dL
Ht (3 h): 37.4%
Lym (3 h): 72.6%
MCH (3 h): 21.4 pg
MCHC (3 h): 33.7%
MCV (3 h): 63.2 fL
Mono (3 h): 2%
Neu (3 h): 23.6%
PT (3 h): 16 s
Plat (3 h): 115.9 x10_4/uL
RBC (3 h): 590.6 x10_4/ul
Ret (3 h): 8.3%
WBC (3 h): 64.3 x10_2/uL
KIDNEY_L (3 h): 0.9 g
KIDNEY_R (3 h): 1 g
KIDNEY_TOTAL (3 h): 1.9 g
LIVER (3 h): 9.7 g
A/G (3 h): 1.4
ALP (3 h): 1326.8 IU/L
ALT (3 h): 43 IU/L
AST (3 h): 81.6 IU/L
BUN (3 h): 14.6 mg/dL
CRE (3 h): 0.1 mg/dL
Ca (3 h): 10.6 mg/dL
Cl (3 h): 107.8 meq/L
DBIL (3 h): 0.014 mg/dL
GLC (3 h): 196.8 mg/dL
IP (3 h): 10.3 mg/dL
K (3 h): 4.5 meq/L
LDH (3 h): 251 IU/L
Na (3 h): 142.2 meq/L
PL (3 h): 132.2 mg/dL
RALB (3 h): 3.1 g/dL
TBIL (3 h): 0.028 mg/dL
TC (3 h): 79 mg/dL
TG (3 h): 33.8 mg/dL
TP (3 h): 5.5 g/dL
gamma-GTP (3 h): 1 IU/L
TERMINAL_BW (6 h): 211.5 g
APTT (6 h): 21.2 s
Bas (6 h): 0%
Eos (6 h): 1%
Fbg (6 h): 318.6 mg/dL
Hb (6 h): 13 g/dL
Ht (6 h): 38%
Lym (6 h): 77%
MCH (6 h): 21.2 pg
MCHC (6 h): 34.1%
MCV (6 h): 62.1 fL
Mono (6 h): 2.2%
Neu (6 h): 19.2%
PT (6 h): 15.6 s
Plat (6 h): 119.7 x10_4/uL
RBC (6 h): 611.8 x10_4/ul
Ret (6 h): 8.1%
WBC (6 h): 63.2 x10_2/uL
KIDNEY_L (6 h): 1 g
KIDNEY_R (6 h): 1 g
KIDNEY_TOTAL (6 h): 2 g
LIVER (6 h): 9.8 g
A/G (6 h): 1.3
ALP (6 h): 1572.4 IU/L
ALT (6 h): 40.6 IU/L
AST (6 h): 75.2 IU/L
BUN (6 h): 11.8 mg/dL
CRE (6 h): 0.1 mg/dL
Ca (6 h): 10.5 mg/dL
Cl (6 h): 107.8 meq/L
DBIL (6 h): 0.014 mg/dL
GLC (6 h): 194.2 mg/dL
IP (6 h): 10 mg/dL
K (6 h): 4.5 meq/L
LDH (6 h): 239 IU/L
Na (6 h): 141 meq/L
PL (6 h): 141.6 mg/dL
RALB (6 h): 3.1 g/dL
TBIL (6 h): 0.026 mg/dL
TC (6 h): 75.4 mg/dL
TG (6 h): 42.4 mg/dL
TP (6 h): 5.5 g/dL
gamma-GTP (6 h): 1.2 IU/L
TERMINAL_BW (9 h): 205.5 g
APTT (9 h): 20.8 s
Bas (9 h): 0%
Eos (9 h): 0.8%
Fbg (9 h): 351 mg/dL
Hb (9 h): 13.6 g/dL
Ht (9 h): 40.1%
Lym (9 h): 69.2%
MCH (9 h): 21.4 pg
MCHC (9 h): 33.9%
MCV (9 h): 63.3 fL
Mono (9 h): 2.6%
Neu (9 h): 27.4%
PT (9 h): 15.8 s
Plat (9 h): 124.5 x10_4/uL
RBC (9 h): 633.8 x10_4/ul
Ret (9 h): 7.8%
WBC (9 h): 68.7 x10_2/uL
KIDNEY_L (9 h): 0.9 g
KIDNEY_R (9 h): 1 g
KIDNEY_TOTAL (9 h): 1.9 g
LIVER (9 h): 9.1 g
A/G (9 h): 1.2
ALP (9 h): 1633.4 IU/L
ALT (9 h): 41 IU/L
AST (9 h): 76.6 IU/L
BUN (9 h): 11.4 mg/dL
CRE (9 h): 0.1 mg/dL
Ca (9 h): 10.4 mg/dL
Cl (9 h): 108.6 meq/L
DBIL (9 h): 0.018 mg/dL
GLC (9 h): 196.6 mg/dL
IP (9 h): 9.9 mg/dL
K (9 h): 4.3 meq/L
LDH (9 h): 223.6 IU/L
Na (9 h): 142.2 meq/L
PL (9 h): 142 mg/dL
RALB (9 h): 3.1 g/dL
TBIL (9 h): 0.034 mg/dL
TC (9 h): 74.8 mg/dL
TG (9 h): 49.4 mg/dL
TP (9 h): 5.7 g/dL
gamma-GTP (9 h): 1.2 IU/L
TERMINAL_BW (24 h): 215.6 g
APTT (24 h): 19.4 s
Bas (24 h): 0%
Eos (24 h): 0.8%
Fbg (24 h): 300.6 mg/dL
Hb (24 h): 13.4 g/dL
Ht (24 h): 38.6%
Lym (24 h): 76.4%
MCH (24 h): 22.1 pg
MCHC (24 h): 34.7%
MCV (24 h): 63.6 fL
Mono (24 h): 2%
Neu (24 h): 20%
PT (24 h): 15.8 s
Plat (24 h): 140.3 x10_4/uL
RBC (24 h): 607.2 x10_4/ul
Ret (24 h): 8.2%
WBC (24 h): 111.6 x10_2/uL
KIDNEY_L (24 h): 1 g
KIDNEY_R (24 h): 1 g
KIDNEY_TOTAL (24 h): 1.9 g
LIVER (24 h): 10.4 g
A/G (24 h): 1.2
ALP (24 h): 1455.6 IU/L
ALT (24 h): 44.8 IU/L
AST (24 h): 73.4 IU/L
BUN (24 h): 18 mg/dL
CRE (24 h): 0.1 mg/dL
Ca (24 h): 11.1 mg/dL
Cl (24 h): 106.4 meq/L
DBIL (24 h): 0 mg/dL
GLC (24 h): 176.8 mg/dL
IP (24 h): 8.6 mg/dL
K (24 h): 4.1 meq/L
LDH (24 h): 241 IU/L
Na (24 h): 142 meq/L
PL (24 h): 149.8 mg/dL
RALB (24 h): 3 g/dL
TBIL (24 h): 0.006 mg/dL
TC (24 h): 77 mg/dL
TG (24 h): 100.6 mg/dL
TP (24 h): 5.6 g/dL
gamma-GTP (24 h): 1 IU/L
